# According to ChEMBL document CHEMBL5303304, “EUbOPEN Chemogenomics Library - IncuCyte” (2023):
# Tests used:
# Format in all cases: toxicity, cell-based
# HEK-293T = assay: Incucyte cell viability with HEK293T; conditions: human, 10 µM, compound concentration 10 uM
# U2OS = assay: Incucyte cell viability with U2OS; conditions: human, 10 µM, compound concentration 10 uM
# Fibroblast = assay: Incucyte cell viability with human fibroblast; conditions: 10 µM, compound concentration 10 uM
# Further: unitless GR value; below 1 slowed growth and below 0 cell loss.
SMILES,"Growth Rate (HEK-293T; 6 h, replicate number 1)","Growth Rate (HEK-293T; 6 h, replicate number 2)","Growth Rate (HEK-293T; 12 h, replicate number 1)","Growth Rate (HEK-293T; 12 h, replicate number 2)","Growth Rate (HEK-293T; 18 h, replicate number 1)","Growth Rate (HEK-293T; 18 h, replicate number 2)","Growth Rate (HEK-293T; 24 h, replicate number 1)","Growth Rate (HEK-293T; 24 h, replicate number 2)","Growth Rate (U2OS; 12 h, replicate number 1)","Growth Rate (U2OS; 12 h, replicate number 2)","Growth Rate (U2OS; 18 h, replicate number 1)","Growth Rate (U2OS; 18 h, replicate number 2)","Growth Rate (U2OS; 24 h, replicate number 2)","Growth Rate (Fibroblast; 6 h, replicate number 1)","Growth Rate (Fibroblast; 12 h, replicate number 1)","Growth Rate (Fibroblast; 18 h, replicate number 1)","Growth Rate (U2OS; 0 h, replicate number 2)","Growth Rate (Fibroblast; 6 h, replicate number 2)","Growth Rate (Fibroblast; 12 h, replicate number 2)","Growth Rate (Fibroblast; 24 h, replicate number 2)",other results
COc1cc(-c2cc(-c3cccc(O)c3)cnc2N)cc(OC)c1OC,-0.66,0.38,-0.58,0.41,-0.43,0.33,-0.24,0.42,0.89,0.96,0.73,0.85,0.86,-0.21,-1,0.59,–,–,–,–,"Growth Rate (U2OS; 24 h, replicate number 1): 0.75; Growth Rate (Fibroblast; 0 h, replicate number 1): 0.1; Growth Rate (Fibroblast; 0 h, replicate number 2): -0.98"
C[C@@H](NC(=O)Cc1ccc(C2CC2)cc1)c1ccc(OCC(F)(F)F)cn1,0.39,0.17,–,0.64,–,0.63,–,0.68,–,0.53,–,0.79,0.87,0.85,-1,-0.27,-0.85,-0.99,0.67,0.89,"Growth Rate (U2OS; 0 h, replicate number 1): -0.06; Growth Rate (U2OS; 6 h, replicate number 2): 0.67; Growth Rate (Fibroblast; 0 h, replicate number 1): -0.4; Growth Rate (Fibroblast; 18 h, replicate number 2): 0.93; Growth Rate (Fibroblast; 24 h, replicate number 1): 0.8"
CCc1cncnc1N1CCN(Cc2nc3cc(C(F)(F)F)ccc3[nH]2)CC1,0.41,0.28,0.53,0.34,0.65,0.48,0.88,0.58,0.51,0.49,0.53,0.57,0.84,1,-1,0.44,-0.83,-0.99,0.78,0.93,"Growth Rate (U2OS; 6 h, replicate number 1): 0.31; Growth Rate (U2OS; 6 h, replicate number 2): 0.19; Growth Rate (U2OS; 24 h, replicate number 1): 0.7; Growth Rate (Fibroblast; 0 h, replicate number 1): 0.88; Growth Rate (Fibroblast; 24 h, replicate number 1): 0.31"
Cc1nnsc1C(=O)Nc1ccc(-n2nc(C(F)(F)F)cc2C(F)(F)F)cc1,0.1,-0.01,0.96,0.28,0.7,0.39,0.58,0.42,0.51,0.42,0.97,0.63,0.68,0.37,-1,–,-0.95,-0.36,0.73,0.74,"Growth Rate (U2OS; 6 h, replicate number 1): 0.52; Growth Rate (U2OS; 6 h, replicate number 2): -0.02; Growth Rate (U2OS; 24 h, replicate number 1): 0.9; Growth Rate (Fibroblast; 0 h, replicate number 2): 0.89; Growth Rate (Fibroblast; 18 h, replicate number 2): 0.94"
Nc1n[nH]c2nc(-c3ccc(NS(=O)(=O)c4cccc(Cl)c4Cl)cc3)cnc12,0.93,0.42,0.83,0.81,–,0.84,–,0.95,–,–,–,–,–,-0.19,-0.95,–,–,-1,–,–,"Growth Rate (U2OS; 0 h, replicate number 1): 0.36; Growth Rate (Fibroblast; 0 h, replicate number 1): 0.67; Growth Rate (Fibroblast; 0 h, replicate number 2): -0.78"
COCCNc1nc2ccc(C#CC3(O)CCCCC3)cc2n1-c1ccnc(N)n1,0.37,–,–,1,–,0.96,–,0.84,0.77,0.69,0.85,0.73,0.78,-0.48,-1,0.24,–,-1,-0.26,0.18,"Growth Rate (U2OS; 6 h, replicate number 1): 0.44; Growth Rate (U2OS; 6 h, replicate number 2): 0.8; Growth Rate (U2OS; 24 h, replicate number 1): 0.92; Growth Rate (Fibroblast; 18 h, replicate number 2): 0.28; Growth Rate (Fibroblast; 24 h, replicate number 1): 0.3"
CCNCCNC(=O)c1c(C)[nH]c(/C=C2\C(=O)Nc3ccc(F)cc32)c1C,-0.62,-0.16,-0.52,-0.09,-0.32,0.09,-0.09,0.21,–,–,0.78,0.77,0.7,-0.96,-1,–,-0.6,–,0.44,0.1,"Growth Rate (U2OS; 24 h, replicate number 1): 0.69; Growth Rate (Fibroblast; 18 h, replicate number 2): 0.18"
COc1ccccc1-n1nc(C2CC(C)(C)OC(C)(C)C2)cc1-c1ccc(Cl)cc1,-0.05,-0.13,0.46,0.41,0.79,0.54,0.95,0.64,0.85,0.93,0.94,0.96,0.95,–,–,-0.27,-0.66,-1,0.99,–,"Growth Rate (U2OS; 6 h, replicate number 2): 0.41; Growth Rate (U2OS; 24 h, replicate number 1): 0.94; Growth Rate (Fibroblast; 0 h, replicate number 1): -0.49; Growth Rate (Fibroblast; 18 h, replicate number 2): 0.87"
C[C@@H](Cn1c(=O)[nH]/c(=N\c2ccc(Oc3ccccn3)cc2)n(Cc2ccc(Cl)cc2)c1=O)C(=O)O,0.2,0.62,–,–,0.97,–,–,–,0.97,–,0.99,–,–,-0.1,–,–,-0.83,-1,0.04,0.85,"Growth Rate (U2OS; 6 h, replicate number 2): 0.93; Growth Rate (Fibroblast; 18 h, replicate number 2): 0.75"
Cl.Cl.O=C1c2ccccc2C(Cc2ccncc2)(Cc2ccncc2)c2ccccc21,0.32,0.89,0.55,0.97,0.62,0.63,0.6,0.63,–,0.75,–,0.92,0.88,–,-1,0.1,-0.7,–,–,0.89,"Growth Rate (U2OS; 0 h, replicate number 1): -0.47; Growth Rate (U2OS; 6 h, replicate number 2): 0.24"
CC[C@]1(C)C[C@@H](OC(=O)CSc2nnc(N)[nH]2)[C@@]2(C)[C@H](C)CC[C@@]3(CCC(=O)[C@H]32)[C@@H](C)[C@@H]1O,0.09,0.46,0.86,0.81,0.65,0.83,0.84,0.87,0.98,–,0.95,–,–,-0.17,–,0.7,–,-0.93,0.82,0.97,"Growth Rate (Fibroblast; 0 h, replicate number 2): -0.62; Growth Rate (Fibroblast; 18 h, replicate number 2): 0.99"
